Laboratory results reported in patent publication US10640450B1, “Hydroxytyrosol dihydrocaffeate having antioxidant activity and a method for preparing the same” (SHAANXI UNIVERSITY OF SCIENCE AND TECHNOLOGY, priority 2019, dated 2020).

Assay: DPPH radical scavenging activity assay
Assay type: biochemical
Details: for DPPH Clearance rate: 30 min dark, room temperature, 517 nm, n = 3
Source text: 2,2-Diphenyl-1-picryl hydrazyl (DPPH) is an organic compound composed of a stable organic radical. In the DPPH molecule, due to the presence of multiple electron-withdrawing —NO2 and large π bonds of the benzene ring, nitrogen free radical is stabilized. Its methanol solution is purple and has a maximum absorption peak at 517 nm. After the addition of an antioxidant, DPPH captures an electron to be paired with the free electron, and the purple fades and turns into a yellow substance. The absorption at 517 nm disappears, and the degree of fading is quantitatively related to the number of electrons it captures. Based on this principle, a spectrophotometer is used to detect the change of the absorbance of the DPPH radical and the sample solution, and the ability of the sample to provide hydrogen atoms and scavenge free radicals can be measured.
(a) Preparation of DPPH solution: measuring exact amount of 2,2-diphenyl-1-picryl hydrazyl (DPPH) and dissolving in toluene to prepare a 0.2 mmoL/L DPPH solution, stored at 0° C. in dark.
(b) Preparation of test solution: Vc (vitamin C, positive control), hydroxytyrosol dihydrocaffeate (sample), hydroxytyrosol (control) and dihydrocaffeic acid (control). The sample solution was subjected to gradient dilution with toluene, and three sets of controls were separately dissolved in a test tube with a certain amount of toluene to prepare the same concentration gradient as the sample.
Sample liquid absorbance measurement: Taking 2 mL of test solution (Table 1: Vc, A, B, C), adding 2 mL of DPPH solution with concentration of […], mixing and reacting in the dark at room temperature for 30 min, adjusting to zero with toluene, and measuring at 517 nm. The absorbance A, was simultaneously measured for the absorbance of 2 mL of toluene mixed with 2 mL of the solution and the absorbance A0 of 2 mL of DPPH solution mixed with 2 mL of toluene (The experimental results are shown in Table 2).
Clearance rate (%)=[1−(Ai−Aj)/A0]*100% Clearance calculation: […]

Compound	antioxidant activity (in words)	DPPH Clearance rate (1.76 ppm in toluene)	DPPH Clearance rate (8.80 ppm in toluene)	DPPH Clearance rate (21.12 ppm in toluene)	DPPH Clearance rate (42.24 ppm in toluene)	DPPH Clearance rate (79.20 ppm in toluene)	DPPH Clearance rate (112.64 ppm in toluene)	DPPH Clearance rate (281.60 ppm in toluene)	DPPH Clearance rate (492.80 ppm in toluene)	DPPH Clearance rate (792.00 ppm in toluene)	DPPH Clearance rate (915.20 ppm in toluene)	scavenging ability to DPPH radical compared with controls (compared with hydroxytyrosol (B) and dihydrocaffeic acid (C) alone)	highest scavenging rate of DPPH radical (in the determined concentration range (1.76-915.20 ppm))
O=C(CCc1ccc(O)c(O)c1)OCCc1ccc(O)c(O)c1 [A, 3,4-dihydroxyphenethyl 3-(3,4-dihydroxyphenyl)propanoate]	excellent antioxidant activity	13.45%	17.80%	34.16%	42.74%	70.42%	80.63%	82.35%	85.70%	89.10%	91.22%	much higher than those of hydroxytyrosol (B) control group and dihydrocaffeic acid (C) control groups	91.22%
O=C(O)CCc1ccc(O)c(O)c1 [C, Dihydrocaffeic acid]	–	6.27%	7.46%	13.42%	19.21%	32.36%	37.87%	53.23%	59.82%	69.01%	70.28%	–	–
O=C1O[C@H]([C@@H](O)CO)C(O)=C1O [Vc, Vitamin C]	–	23.16%	33.47%	79.63%	89.55%	97.42%	97.53%	98.29%	99.06%	99.10%	99.28%	–	–
